{
  "source": "patent US20240166626A1",
  "about": "“Compounds and Methods for Preventing, Treating, or Ameliorating Airway Disease” (THOMAS JEFFERSON UNIVERSITY, priority 2021, published 2024)",
  "molecular_target": "β2AR (Homo sapiens, UniProt P07550)",
  "sequence (P07550 whole entry)": "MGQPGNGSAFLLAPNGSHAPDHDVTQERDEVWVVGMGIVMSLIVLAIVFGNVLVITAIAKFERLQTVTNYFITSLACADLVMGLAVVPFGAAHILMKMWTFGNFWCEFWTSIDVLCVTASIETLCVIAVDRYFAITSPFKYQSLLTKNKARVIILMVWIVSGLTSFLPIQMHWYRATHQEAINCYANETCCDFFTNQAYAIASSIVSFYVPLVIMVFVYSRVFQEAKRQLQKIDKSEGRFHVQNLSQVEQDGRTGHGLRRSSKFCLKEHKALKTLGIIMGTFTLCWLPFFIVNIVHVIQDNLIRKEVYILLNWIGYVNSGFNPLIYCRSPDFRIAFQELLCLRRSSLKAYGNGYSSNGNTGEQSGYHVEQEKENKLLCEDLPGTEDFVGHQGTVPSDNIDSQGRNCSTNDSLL",
  "experiment": "cAMP measurement by ELISA in HEK 293 cells stably overexpressing β2AR",
  "assay_type": "cell-based",
  "experimental": "Schematic of screening methodologies for cAMP production and β-arrestin binding. Cells were treated with the unbiased beta-agonist isoproterenol (ISO)±test compounds. The primary high throughput screen utilized a luciferase-based cAMP biosensor, GLOSENSORTM (Promega), and an enzyme complementation-based assay, […]® (DiscoveRx). Independent secondary screening utilized a cAMP ELISA and BRET for β-arrestin recruitment. […] Secondary screen for cAMP production by ELISA. […] Cells were lysed and cAMP production was measured. […] Dose response curve for DFPQ as measured by BRET. […] Data for dose response curve was taken 12 min post ISO addition. n=3. […] Cells were lysed and cAMP production was measured by ELISA. […] Cells were read every three minutes for 18 minutes on a PolarStar Optima plate reader (BMG) to establish peak signal. […] Luminescence was determined at room temperature (23-25° C.) on a PolarStar Optima plate reader (BMG). […] Relative assay bias was calculated from the ratio of normalized cAMP and arrestin recruitment responses. […] BRET was measured using a Tecan Infinite F500 microplate reader. […] Bound [35 S]GTPγS was collected by rapid filtration on GF/B filters, washed 4 times with 4 ml of cold GTPγS wash buffer and analyzed by liquid scintillation counting. […] Immunoprecipitated proteins were separated by SDS-PAGE and analyzed by western blot using a β2AR C-terminal tail or phospho-specific antibody. […]",
  "data": [
    {"smiles": "Fc1ccc(Nc2nc(NC3CCCCC3)c3ccccc3n2)cc1F", "note": "[DFPQ, N^4-cyclohexyl-N^2-(3,4-difluorophenyl)quinazoline-2,4-diamine]", "values": [
      {"measurement": "effect on ISO-stimulated cAMP production", "setting": "10 μM DFPQ, 1 μM ISO 10 min, FIG. 1B", "result": "no effect"},
      {"measurement": "effect on ISO dose response curves, cAMP production readout", "setting": "increasing concentrations up to 10 μM DFPQ, FIG. 1E", "result": "no effect"}
    ]}
  ]
}
